Laboratory results taken from patent US4853470A, “3-(piperidinyl)- and 3-(pyrrolidinyl)-1H-indazoles” (Hoechst-Roussel Pharmaceuticals, Inc., priority 1988, dated 1989).
Like-named read-outs stand apart in the source and are kept apart here.

Key:
[1] = tested on: tetrabenazine induced ptosis; assay: tetrabenazine induced ptosis assay (antidepressant activity); format: in vivo, mice; conditions: Mus musculus, ip, read-out: ED50, inhibition of ptosis
Description: The 3-(piperidinyl)- and 3-(pyrrolidinyl)-1H-indazoles of the present invention are also useful as antidepressants by virtue of their ability to elicit an antidepressant response in mammals. […] Thus, for example,. the intraperitoneal (i.p.) dose effecting an estimated 50% inhibition of ptosis (ED50) in mice produced in this assay is as follows: […]

[2] = tested on: mean arterial blood pressure; assay: antihypertensive activity, indirect tail cuff method, spontaneous hypertensive rat; format: in vivo; conditions: third day
Procedure: The compounds of the invention are also useful as antihypertensive agents due to their ability to depress blood pressure in mammals. Antihypertensive activity is measured in the spontaneous hypertensive rat by the indirect tail cuff method described in "Methods in Pharmacology," A. Schwartz, Ed., Vol. I, Appleton-Century Crofts, N.Y., 1971, p. 135. In this procedure a group of five animals are treated orally (p.o.) for three days with the test compound in relation to the control group of the same number. The drop in blood pressure is measured on the third day following administration. The antihypertensive activities of some of the compounds, expressed as mm decrease in mean arterial blood pressure are given below: […]

SMILES	ED50 ([1]; estimated 50% inhibition) [mg/kg]	further results
CN1CCC(c2nn(-c3ccccc3F)c3ccccc23)CC1.Cl [1-(2-Fluorophenyl)-3-(1-methyl-4-piperidinyl)-1H-indazole hydrochloride]	1.7	–
CN1CCC(c2nn(-c3cccc(F)c3)c3ccccc23)CC1.Cl [1-(3-Fluorophenyl)-3-(1-methyl-4-piperidinyl)-1H-indazole hydrochloride]	5	–
COC(=N)N1CCC(c2n[nH]c3ccccc23)CC1 [4-(1H-indazol-3-yl)piperidine-1-carboximidic acid methyl ester]	–	Decrease in Blood Pressure ([2]; 3 mg/kg p.o.): 47 mm Hg
COC(=N)N1CCC(c2n[nH]c3cc(F)ccc23)CC1 [4-(6-fluoro-1H-indazol-3-yl)piperidine-1-carboximidic acid methyl ester]	–	Decrease in Blood Pressure ([2]; 30 mg/kg p.o.): 88 mm Hg
CN1CCC(c2nn(-c3ccccc3F)c3cc(F)ccc23)CC1.O=C(O)/C=C/C(=O)O [6-Fluoro-1-(2-fluorophenyl)-3-(1-methyl-4-piperidinyl)-1H-indazole fumarate]	6.3	–
CN(C)CCC=C1c2ccccc2CCc2ccccc21 [amitriptyline, reference compound]	1.5	–
N=C(N)NCCN1CCCCCCC1 [guanethidine, reference compound]	–	Decrease in Blood Pressure ([2]; 50 mg/kg p.o.): 20 mm Hg
CN(C)CCCN1c2ccccc2CCc2ccccc21 [imipramine, reference compound]	–	ED50 [1]: 1.3 mg/kg
